86 compounds from a melting point compilation (Tetko et al.; mined from patent text by program, amines drawn as free bases though some values may be those of a salt) can be followed below.

Molecules are shown by their SMILES.

By melting point is commonly meant the temperature of the solid-liquid transition. In the case of `O=C(Cc1ccc(Cl)c(Cl)c1)N1C(=O)OC[C@@H]1Cc1ccccc1`, the melting point lay in the range of 70.5 to 71.5 °C. In the case of `COc1ccc(C(=O)Nc2ccc(Cl)c(Cl)c2)cc1NCc1cccnc1` it was 145 to 147 °C; in that of `CC(C)Cn1c(-c2c(F)cccc2F)c(Cl)nc(-n2cccn2)c1=O`, 118 to 119 °C; in that of `COC(=O)C(=O)c1ccc(OCCOc2ccc(Oc3ccccc3)cc2)cc1`, 97 to 98 °C. In the case of `CNc1n[nH]c(=O)n1N` it was 214 °C; in that of `CSc1cc(SC)c(SC)cc1NC(C)=O`, 87 to 89 °C; in that of `CCn1nc2c(N)nc3cnccc3c2c1CC(C)(C)O`, 277 to 279 °C.

Regarding `O=C(c1ccccc1)c1cc2c3ccccc3[nH]c(=O)n2n1`, the melting point was in the range of 308 to 311 °C.

Consider `CCc1nn(-c2cc(NC(=O)c3ccccc3)ccc2Cl)c(=O)n1Cc1ccc(-c2ccccc2S(=O)(=O)NC(=O)OC(C)(C)C)cc1F`, for which the melting point fell in the range of 79 to 81 °C. For the compound `O=Cc1c[nH]c2c1ccc1c3ccc(Br)cc3[nH]c12`, the melting point was > 250 °C. Compound `COC(=O)NC1=NC(c2ccc(F)cc2)CCN1` (stereo unspecified) returned a melting point of 211 to 212 °C. `N#Cc1nc(-c2ccc(OCCN3CCCCC3)cc2)cs1`: the melting point lay within 85 to 86 °C. Compound `CC(C)n1cc(-c2nc(C#N)c(N)nc2-c2ccc(F)c(F)c2)ccc1=O` gave a melting point of 180 °C.

`Cc1nc(N2CCN(CCC3CC3)C2=O)sc1C(=O)NCc1cccnc1` gave a melting point of 146 to 147 °C. In the case of `O=C(O)c1cccc(NC(=O)N2CCc3cc(S(=O)(=O)N4CCN(c5cccc(Cl)c5)CC4)ccc32)c1` it was 250 °C; in that of `COc1cc([N+](=O)[O-])c2nccc(C)c2c1OCCCCCc1cccs1`, 51 to 54 °C. `CS(=O)(=O)CN=C(N)NCCSCc1csc(NC(N)=NCC(F)(F)C(F)(F)F)n1`: the melting point lay within 149 to 151 °C.

The compound `CC(=O)OCC1OC(N=[N+]=[N-])C(OC(C)=O)C(OC(C)=O)C1OC(C)=O` (stereo unspecified) yielded a melting point of 52 to 53 °C. Under `CCCCCCCCCC(=O)c1ccc(Br)cc1F` stands 31 to 32 °C.

In turn, `Cc1nc2c(CN3CCOCC3)cc(Cl)nn2c1C(=O)c1ccc(Cl)cc1F` registered a melting point of 145 to 147 °C. Under `CCCCCCCCSC(=O)CS(=O)(=O)Nc1c(C(C)C)cccc1C(C)C` stands 51 to 52 °C. Under `NC(=O)N1CCN(C(=O)Cc2ccc(Cl)c(Cl)c2)C(CN2CCCC2)C1` (stereo unspecified) stands 206 to 209 °C; under `O=C1CCC(N2C(=O)c3cccc(Nc4ccc(C5CCCCC5)cc4)c3C2=O)C(=O)N1` (stereo unspecified), 219 to 221 °C; under `COC(=O)/C=C/c1ccc(C=O)s1`, 61 to 62.5 °C.

Regarding `CN1CCC(=C2c3c(ccn3C)C=Cn3cnnc32)CC1`, the melting point was 262 °C. Compound `Cc1cc(O)ccc1Nc1ccccc1C(=O)O` registered a melting point of 209 to 211 °C. On to `Cc1nn(CCO)c(C)c1Oc1cc(Cl)cc(Cl)c1`, for which the melting point was in the range of 114 to 115 °C. `CCCCNC(=S)c1cccc(NC(=O)N(C)C)c1` registered a melting point of 68 to 71 °C. Under `CN(Cc1ccc(Cl)cc1)S(=O)(=O)c1cn(S(=O)(=O)N(C)C)c(C#N)n1` stands 162 to 163 °C; under `COc1cc(-c2ccc3n[nH]c(=O)n3n2)cc(OC)c1OC`, 289 to 290 °C. Take `CCOC(=O)COc1ccc(NC(=O)NC(=O)c2ccc(C(=N)N)cc2)cc1`: the melting point was 198 to 200 °C. In the case of `CCCc1cc(Cl)c2occ(C)c2c1O` it was 49 to 50 °C; in that of `CC(C)Cn1c(CN2CCCS2(=O)=O)nc2c(N)nc3ccccc3c21`, 230 to 232 °C; in that of `N#CC=Cc1ccc(Cl)cc1C(=O)c1ccccc1F`, 130 to 133 °C. Compound `Cc1c(Cc2cccc(C(=O)O)c2)n(S(=O)(=O)c2cccc(C(C)(C)C)c2)c2ccc(C(F)(F)F)cc12` gave a melting point of 194 °C. In the case of `CC(C)(C(N)=O)c1ccc2nc(-c3ccncc3)[nH]c2c1` it was 274 to 276 °C. For `O=C(COc1ccccc1)N[C@@H](Cc1ccccc1)C(=O)CSCc1ccsc1`, the melting point was 80 to 81 °C. `C#CCN(c1ccc(C(=O)OC(C)(C)C)cc1)C1CCc2cc3nc(C)[nH]c(=O)c3cc21` (racemic): the melting point was in the range of 244 to 246 °C. In turn, `CC(O)=C(C#N)C(=O)Nc1cc(Br)ccc1Br` showed a melting point of 148 to 150 °C. Under `COc1ccc(Cl)c(Oc2c(NS(=O)(=O)c3ccc(C(C)C)cn3)ncnc2OCCOC(=O)Nc2ccccn2)c1` stands 190 to 191 °C; under `Fc1ccc(Oc2ccnc3cccnc23)cc1`, 122 to 124 °C. For the compound `COC1CCC2C3CCC4CC(=O)C(Cl)CC4(C)C3CCC12C` (stereo unspecified), the melting point fell in the range of 202 to 210 °C.

Take `CC(C)(C)OC(=O)N1CC(COS(C)(=O)=O)c2c1cc(OCc1ccccc1)c1ncccc21` (stereo unspecified): the melting point was in the range of 156 to 157 °C. `Clc1ccc(-c2oncc2-c2ccncc2)cc1` came in with a melting point of 121 °C. Regarding `CCCCOC(=O)NC1C(=O)N(OCC(=O)OC(c2ccccc2)c2ccccc2)C1C` (stereo unspecified), the melting point lay within 105 to 108 °C.

As for `CS(=O)(=O)N1CCCn2c(nc3c(N)nc4cc(OCc5ccccc5)ccc4c32)C1`, the melting point lay in the range of 235 to 236 °C. For the compound `C=C1CC2C3CCC4=CC(=O)C=CC4(C)C3=CCC2(C)C1=O` (stereo unspecified), the melting point was in the range of 157 to 160 °C. Compound `CC(=O)OC1C(OC(=O)c2ccc(N)cc2)C=C(C)C(=O)CC1(C)C` (stereo unspecified) gave a melting point of 158 to 160 °C. In the case of `O=C1Nc2ccccc2SC1CCCl` (stereo unspecified) it was 133 to 134 °C. Under `O=Cc1ccc(OCc2cn(C(c3ccccc3)(c3ccccc3)c3ccccc3)cn2)cc1` stands 181 to 182 °C.

`CC1(CCN2C(=O)SC(=Cc3ccc(C(F)(F)F)cc3)C2=O)Cn2cc([N+](=O)[O-])nc2O1` (stereo unspecified) had a melting point of 257 to 258 °C. On to `COc1ccc(-c2cc(-c3ccc(F)cc3)c3c(=O)n(C)c(=O)n(C)c3n2)cc1`, for which the melting point lay within 240 to 243 °C. For the compound `CC(O)CN(Oc1ccccc1C1CCCCC1)C1CCCC(C2CNC(=O)N2)C1` (stereo unspecified), the melting point lay in the range of 117 to 120 °C. With `O=c1[nH]c2cc(Cl)cc(Cl)c2c(=O)n1Cc1cccc(F)c1`, the melting point was 267 to 270 °C. For `N#Cc1c(-c2cccc(C(=O)NCCO)c2)cc(-c2ccccc2O)nc1NC(=O)c1cccs1`, the melting point is 218 to 219 °C. Under `COC(=O)c1cc(C(=O)OC)cc(-c2cc(C(=O)OC)cc(C(=O)OC)c2)c1` stands 214 to 215 °C; under `Nc1cc(O)ccc1F`, 137 to 139 °C; under `COC(=O)c1ccc(CN(C2CCCCC2O)S(=O)(=O)c2ccc(Cl)cc2)c(F)c1F` (stereo unspecified), 123 to 125 °C. Under `CCCN1CCN(c2cccc3ccc(NC(=O)c4ccc(Cl)cc4)cc23)CC1` stands 130 to 132 °C; under `Cc1nn(-c2cc(Oc3ccc([N+](=O)[O-])cc3)c(Cl)cc2F)c(=O)n1C(F)F`, 115 to 117 °C.

The compound `COc1ccc(CC(=O)Nc2c(-c3cc(Cl)ccc3O)c3cc(C(F)(F)F)ccc3[nH]c2=O)cc1` showed a melting point of 172 to 175 °C.

The compound `CC(O)C1CCC2C3C=CC4=CC(=O)C5OC5C4(C)C3CCC12C` (stereo unspecified) came in with a melting point of 206 to 207 °C. In the case of `O=Cc1cccn1-c1ccc2ccc3[nH]c(=O)c(=O)[nH]c3c2c1` it was > 250 °C; in that of `CCOC(=O)C(CC#N)(C(=O)OCC)c1ccc([N+](=O)[O-])cn1`, 66 to 68 °C; in that of `O=c1cc(-c2ccccc2)sc2c1[nH]c1ccccc12`, 271 to 272 °C. Under `O=C(NC1C(=O)Nc2ccccc2SC1c1ccccc1)OCc1ccccc1` (stereo unspecified) stands 246 to 248 °C; under `CC(C)(C)OC(=O)Nc1cc(N2CCC3(CC2)OCCO3)c(-c2ccccc2F)cc1N`, 198 °C; under `CCCCCCCCCCNC(=O)c1cc(NCC(=O)OC)cc(C(=O)NCCCCCCCCCC)c1`, 108 to 109 °C. Under `CCN(CC)CCOc1cccc2c1c1cc(Cl)ccc1n2Cc1ccccc1` stands 96 to 97.5 °C. As to `O=C(NCCSCc1cccc(Cl)c1)c1c(C(F)(F)F)cccc1C(F)(F)F`, the melting point was in the range of 93 to 94 °C. In the case of `Cc1ccc(Oc2c([N+](=O)[O-])cc(C(=O)O)cc2S(N)(=O)=O)cc1` it was 236 °C; in that of `CN(CC(=O)N1CCN(Cc2ccc3c(c2)OCO3)CC1)c1ccc(Oc2ccc(NS(=O)(=O)c3ccc(Cl)c(Cl)c3)cn2)c(F)c1`, 186 to 187 °C. Under `O=c1[nH]ncc2c(O)cccc12` stands 351 to 355 °C; under `CCCCCCCCCCCCC1=C(Cl)C(=O)c2ccccc2C1=O`, 80 to 82 °C.

In turn, `OCC(CO)c1cccc2ccccc12` returned a melting point of 58 to 60 °C. Regarding `O=C(Nc1ccc(Oc2ccnc(N3CCOCC3)n2)c2ccccc12)c1cc(F)cc(N2CCOCC2)c1`, the melting point lay in the range of 104 to 106 °C. Regarding `CCn1c2ccccc2c2oc(C(N)=O)cc(=O)c21`, the melting point fell in the range of 224 to 226 °C.

`Cc1oc(-c2ccccc2)nc1CCOc1ccc(C=CC=CC=C2OC(=O)NC2=O)cc1` yielded a melting point of 209 to 211 °C.

`CC(c1ccc2c(=O)c3ccccc3ccc2c1)C1N(c2ccccc2)CCN1c1ccccc1` (stereo unspecified) gave a melting point of 81 to 89 °C. In the case of `COC(=O)[C@H](Cc1ccc(NC(=S)NCCN2CCOCC2)cc1)NC(=O)[C@@H]1CCCN1S(=O)(=O)c1ccc(C)cc1` it was 158 to 168 °C; in that of `O=c1c2c[nH]c3ccncc3c-2nn1-c1ccccc1`, 334 to 337 °C.

Turning to `N#Cc1c(Cl)c([N+](=O)[O-])cc2[nH]c(=O)c(=O)[nH]c12`, the melting point lay in the range of 327 to 331 °C.

For `Cc1ccc(S(=O)(=O)c2cn(S(=O)(=O)c3ccccc3)c3ccccc23)cc1`, the melting point was in the range of 189 to 190 °C. `C=Cc1ccccc1N1CCCCC1` gave a melting point of 147 to 150 °C. In the case of `CC(=O)OCc1cc2c(C(O)CN(Cc3ccccc3)C(C)(C)C)ccc(OCc3ccccc3)c2[nH]1` (stereo unspecified) it was 133 to 134 °C; in that of `CN1C(=O)COc2c1cc(Cl)c([N+](=O)[O-])c2C(=O)O`, 257 °C.
